Assays:
Assay type in all cases: cell-based, human
[1] = tested on: G3BP1 puncta in Huh7 cells; test: HCM quantification of G3BP1 puncta in Huh7 cells; conditions: 2 mM LLOMe for 30 min
[2] = tested on: polyA RNA in G3BP1 puncta; test: Confocal microscopy of G3BP1 and polyA RNA (Cy3-oligo[dT]) by FISH in U2OS cells; conditions: 2 mM LLOMe for 30 min
PKR = test: Immunoblot analysis of PKR (T446) phosphorylation in U2OS cells; conditions: 2 mM LLOMe for 30 min
From the text: The level of phosphorylation of eIF2α (S51) is quantified based on three independent experiments. […] Red masks, computer-identified G3BP1 puncta. […] Ctrl, control (untreated cells). Data, means±SEM; HCM: n≥3 (each experiment: 500 valid primary objects/cells per Well, ≥5 Well s/sample). *p<0.05, **p<0.01, ANOVA. See also FIG. 2S.

mTOR = test: mTOR/mTORC1 activity by phosphorylation of its substrates (4EBP1 S65, ULK1 S757, S6K1 T389) in U2OS cells; conditions: U2OS cells
ALIX, PKR and PACT = test: Co-IP analysis of interactions among FLAG-ALIX, PKR and PACT in HEK293T cells; conditions: 1 mM LLOMe for 30 min
Protocol: HEK293T cells expressing FLAG (control) or FLAG-ALIX Were treated with 1 mM LLOMe for 30 min. Cell lysates Were immunoprecipitated with anti-FLAG antibody and immunoblotted for indicated proteins. […] FL (full length); Bro1 (Bro1 domain); V domain; PRD (proline-rich domain). Numbers, residue positions. (ii) Schematic illustration of the Ca^2+/ALG-2-induced open conformation of ALIX. […] HEK293T cells expressing FLAG tagged ALIX mutants and Myc-PKR Were treated with 1 mM LLOMe for 30 min. Cell lysates Were immunoprecipitated with anti-GFP antibody and immunoblotted for indicated proteins. FIG. 12F Analysis of proteins associated with purified lysosomes (LysoIP; TMEM192-3×HA) from HEK293T cells transfected with scrambled siRNA as control (SCR), or ALIX siRNA for knockdown (ALIX^KD). Cells Were treated with 1 mM LLOMe for 30 min. FIG. 12G Schematic summary of the findings in FIGS. 5 and S5. One of three independent western Blot experiments shown. See also FIG. 1S1.

[3] = tested on: G3BP1 puncta (stress granules) in U2OS cells; test: HCM quantification of G3BP1 puncta (stress granule formation) in U2OS cells

Question: With `COC(=O)[C@H](CC(C)C)NC(=O)[C@@H](N)CC(C)C` [LLOMe, L-leucyl-L-leucine methyl ester] as the molecule, how does the “SG response (G3BP1 puncta)” value [1] read?
Answer: SG response was detected

Question: What about the “overlap of G3BP1 puncta with polyA RNA probe (Cy3-oligo-dT, FISH)” value [2] of the same molecule?
Answer: completely overlapped with polyA RNA probe

Question: What about the “PKR activation assessed by phosphorylation at Thr446” value (PKR) of the same molecule?
Answer: PKR was activated

Question: What about the “ULK1 phosphorylation by mTOR at Ser757” value (mTOR; 2 mM LLOMe for 30 min) of the same molecule?
Answer: diminished

Question: What about the “mTOR activity as measured by 4EBP1 phosphorylation” value (mTOR; 2 mM LLOMe, indicated time points) of the same molecule?
Answer: inhibition of mTOR

Question: And the “mTORC1 inactivation (4EBP1 S65), dose dependence” value (mTOR; indicated dose of LLOMe for 30 min)?
Answer: mTORC1 inactivation in a dose-dependent manner

Question: And the “interaction between FLAG-ALIX and endogenous PKR and PACT (co-IP)” value (ALIX, PKR and PACT)?
Answer: notably enhanced

Question: And the “number of SGs upon LLOMe washout” value ([3]; 2 mM LLOMe 30 min followed by 1 h washout)?
Answer: reduction in the number of SGs

Question: And the “SG formation response (G3BP1 puncta)” value ([3]; agent alone for 30 min (2 mM LLOMe, 200 μM GPN, 400 μg/mL silica, 4 mM LOMe))?
Answer: robust SG formation response

Reference: patent publication US20240409935A1, “Atg8ylation coordinates stress granule formation and mTOR inactivation in response to lysosomal damage” (priority 2023, published 2024)
